Values of other authors, collected in US12205808B2 (priority 2019, dated 2025).

Settings: in vivo

Structure (SMILES)	Concentration in postmortem plasma samples	Concentration in plasma	Whole blood concentrations
N#CCCCCn1cc(C(=O)c2cccc3ccccc23)c2ccccc21 [AM-2232]	0.86 ng/mL		
Cc1ccc(C(=O)c2cn(CCCCCF)c3ccccc23)c2ccccc12 [MAM-2201]	16.3 ng/mL		
CC(C)[C@H](NC(=O)c1nn(CC2CCCCC2)c2ccccc12)C(N)=O		0.4 to 14.3 ng/mL	0.6 to 10 ng/mL
